The source of these data is patent US7173004B2, “Macrocyclic isoquinoline peptide inhibitors of hepatitis C virus” (Bristol-Myers Squibb Company, priority 2003, dated 2007).

The target of experiment [1] is T1, HCV NS3/4A protease complex, J4L6S strain (1b genotype) (Hepatitis C virus genotype 1b, UniProt O92972, C1454S/C1711G).
T1 construct: DNA encoding the recombinant HCV NS3/4A protease complex (amino acids 1027 to 1711) for these strains; His tag (inferred from Ni-NTA purification and pET21b vector); made in house; host or cells: Escherichia coli BL21 (DE3)
T1 sequence (O92972 1027-1711 C1454S/C1711G, one chain of several): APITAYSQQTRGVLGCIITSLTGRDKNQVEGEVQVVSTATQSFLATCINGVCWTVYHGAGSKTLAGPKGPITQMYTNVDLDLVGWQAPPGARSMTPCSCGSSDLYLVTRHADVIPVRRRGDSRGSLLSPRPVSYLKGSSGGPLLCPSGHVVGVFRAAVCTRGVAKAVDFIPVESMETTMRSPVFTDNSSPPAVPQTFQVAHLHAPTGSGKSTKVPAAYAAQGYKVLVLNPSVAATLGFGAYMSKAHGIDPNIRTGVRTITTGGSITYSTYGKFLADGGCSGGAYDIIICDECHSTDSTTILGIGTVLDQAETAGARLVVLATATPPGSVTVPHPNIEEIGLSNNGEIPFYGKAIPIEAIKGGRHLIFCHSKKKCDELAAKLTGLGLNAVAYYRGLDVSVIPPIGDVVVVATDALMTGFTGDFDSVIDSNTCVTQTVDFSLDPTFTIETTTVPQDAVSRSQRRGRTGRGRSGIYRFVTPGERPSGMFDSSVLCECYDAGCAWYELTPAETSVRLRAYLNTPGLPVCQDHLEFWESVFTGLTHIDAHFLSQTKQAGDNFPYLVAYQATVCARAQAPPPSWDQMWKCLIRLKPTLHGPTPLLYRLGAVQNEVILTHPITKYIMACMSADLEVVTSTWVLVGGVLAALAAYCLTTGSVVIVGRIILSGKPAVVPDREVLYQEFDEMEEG
Nature of the experiment: Recombinant HCV NS3/4A protease complex FRET peptide assay, J4L6S strain. It is filed as biochemical. The text has this:
Recombinant HCV NS3/4A Protease Complex FRET Peptide Assay
The purpose of this in vitro assay was to measure the inhibition of HCV NS3 protease complexes, derived from the BMS strain, H77C strain or J416S strain, as described below, by compounds of the present invention. This assay provides an indication of how effective compounds of the present invention would be in inhibiting HCV proteolytic activity.
Serum from an HCV-infected patient was obtained from Dr. T. Wright, San Francisco Hospital. An engineered full-length cDNA (compliment deoxyribonucleic acid) template of the HCV genome (BMS strain) was constructed from DNA fragments obtained by reverse transcription-PCR (RT-PCR) of serum RNA (ribonucleic acid) and using primers selected on the basis of homology between other genotype 1a strains. From the determination of the entire genome sequence, a genotype 1a was assigned to the HCV isolate according to the classification of Simmonds et al. (See P Simmonds, K A Rose, S Graham, S W Chan, F McOmish, B C Dow, E A Follett, P L Yap and H Marsden, J. Clin. Microbiol., 31(6), 1493–1503 (1993)). […]

Experiment [2] addresses T2, porcine pancreatic elastase (PPE) (Sus scrofa, UniProt P00772).
T2 construct: purchased Sigma
Nature of the experiment: Specificity assay, porcine pancreatic elastase. It is filed as biochemical. As to conditions: read-out: PPE activity in the specificity assays (IC50). The protocol:
The specificities of compounds of the present invention were determined against a variety of serine proteases: human neutrophil elastase (HNE), porcine pancreatic elastase (PPE) and human pancreatic chymotrypsin and one cysteine protease: human liver cathepsin B. In all cases a 96-well plate format protocol using calorimetric p-nitroaniline (pNA) substrate specific for each enzyme was used as described previously (PCT Patent Application No. WO 00/09543) with some modifications to the serine protease assays. All enzymes were purchased from Sigma while the substrates were from Bachem.
Each assay included a 2 hr enzyme-inhibitor pre-incubation at room temperature followed by addition of substrate and hydrolysis to ˜30% conversion as measured on a Spectramax Pro microplate reader. Compound concentrations varied from 100 to 0.4 micromolar (“μM”) depending on their potency. […]
The percentage of inhibition was calculated using the formula: [1−((UVinh−UVblank)/(UVctl−UVblank))]×100 […]

The structures appear in SMILES notation.

T2 sequence (P00772 27-266): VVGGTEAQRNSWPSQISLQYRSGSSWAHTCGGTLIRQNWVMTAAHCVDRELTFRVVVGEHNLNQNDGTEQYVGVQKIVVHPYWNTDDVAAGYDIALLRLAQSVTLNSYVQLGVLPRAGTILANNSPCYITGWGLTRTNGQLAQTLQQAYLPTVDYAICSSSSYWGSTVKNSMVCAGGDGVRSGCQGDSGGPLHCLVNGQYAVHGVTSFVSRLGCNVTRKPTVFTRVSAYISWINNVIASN

In the case of `CC(C)(C)OC(=O)N[C@H]1CCCCC/C=C\[C@@H]2C[C@@]2(C(=O)NS(C)(=O)=O)NC(=O)[C@@H]2C[C@@H](Oc3nccc4ccccc34)CN2C1=O` [Compound 2, [18-(Isoquinolin-1-yloxy)-4-methanesulfonylaminocarbonyl-2,15-dioxo-3,16-diaza-tricyclo[14.3.0.0^4,6]nonadec-7-en-14-yl]-carbamic acid tert-butyl ester], the values for the 50% inhibitory concentration (IC50) in experiment [1] and in experiment [2] were 1.9 nM and over 100000 nM, respectively.

The term IC50 denotes the concentration that gives 50% inhibition.
